Source: ChEMBL document CHEMBL1201862, “PubChem BioAssay data set” (2004)
Calls of active or inactive are those of the source.

Columns and labels:
[1] = molecular target: T1, Carboxy-terminal domain RNA polymerase II polypeptide A small phosphatase 1 (Homo sapiens, UniProt Q9GZU7); assay: inhibitors of CTDSP1, concentration-response testing, biochemical assay, absorbance-based, actives from ultra-high-throughput screening (AID 540297); type: functional
T1 sequence (Q9GZU7 whole entry): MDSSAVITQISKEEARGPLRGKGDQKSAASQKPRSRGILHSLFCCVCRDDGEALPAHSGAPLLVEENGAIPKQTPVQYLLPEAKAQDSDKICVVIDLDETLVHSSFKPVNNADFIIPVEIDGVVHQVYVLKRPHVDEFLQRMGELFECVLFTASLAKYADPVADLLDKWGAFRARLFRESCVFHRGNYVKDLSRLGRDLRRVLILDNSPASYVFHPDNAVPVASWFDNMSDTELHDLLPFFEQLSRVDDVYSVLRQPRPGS

Genome polyprotein = Genome polyprotein (dengue virus type 2, UniProt P29990); assay: Dengue-2 NS5 methyltransferase inhibitors, primary screen, biochemical, confirmation dose response (AID 588689); type: functional
[2] = molecular target: T2, Rac GTPase-activating protein 1 (Homo sapiens, UniProt Q9H0H5); assay: MgcRacGAP GTPase-activating activity inhibitors, confirmation, biochemical, ADP Hunter fluorescence, primary and confirmatory (AID 624330); type: functional
T2 sequence (Q9H0H5 whole entry): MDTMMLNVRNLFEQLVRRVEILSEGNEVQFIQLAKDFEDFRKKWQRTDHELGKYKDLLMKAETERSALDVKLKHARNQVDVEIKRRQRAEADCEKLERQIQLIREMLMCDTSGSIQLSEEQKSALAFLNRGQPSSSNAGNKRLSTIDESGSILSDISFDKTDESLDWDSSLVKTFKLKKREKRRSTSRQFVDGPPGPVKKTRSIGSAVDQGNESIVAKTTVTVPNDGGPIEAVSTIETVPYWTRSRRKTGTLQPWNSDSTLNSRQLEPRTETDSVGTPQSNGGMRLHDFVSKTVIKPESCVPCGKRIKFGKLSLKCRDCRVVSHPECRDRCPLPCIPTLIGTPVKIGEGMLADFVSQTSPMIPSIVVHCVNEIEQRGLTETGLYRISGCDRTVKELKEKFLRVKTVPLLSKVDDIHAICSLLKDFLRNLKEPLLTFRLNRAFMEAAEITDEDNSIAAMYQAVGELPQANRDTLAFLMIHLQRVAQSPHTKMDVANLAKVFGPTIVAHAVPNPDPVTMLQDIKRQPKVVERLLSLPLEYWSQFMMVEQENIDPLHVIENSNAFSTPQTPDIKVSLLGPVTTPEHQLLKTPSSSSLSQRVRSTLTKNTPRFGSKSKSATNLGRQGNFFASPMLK

Large T antigen = Large T antigen (Simian virus 40, UniProt P03070); type: functional, Betapolyomavirus macacae;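 further: Confirmatory-stage PubChem screen for compounds that inhibit SV40 T antigen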
[3] = molecular target: Luciferin 4-monooxygenase (Photinus pyralis, UniProt P08659); assay: firefly luciferase enzyme inhibitors, dose response, biochemical, luminescence (AID 1891)
[4] = Luminescence Cell-Based Dose Confirmation HTS to Identify Inhibitors of Platelet Dense Granule Release. [Related pubchem assays: 1663 (Primary HTS), 1678 (Summary of Project)]; type: functional
[5] = molecular target: FAD-linked sulfhydryl oxidase ALR (Homo sapiens, UniProt P55789); assay: inhibitors of human ALR sulfhydryl oxidase, dose response, biochemical, H2O2 detection, luminescence, cherry-pick (AID 493248)
[6] = cytotoxicity toward NIH3T3 fibroblasts, dose response, counter-screen, cell-based, ATP luminescence, mouse fibroblasts (AID 2010); type: functional;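 further: cells exposed to compound for about 90 hours before reading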
[7] = inhibitors of intracellular T. cruzi replication, confirmation, NIH3T3 host cells, beta-gal luminescence (AID 2044); type: functional, cell-based;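 further: intracellular parasites grown in NIH/3T3 mouse fibroblasts as host cells; luminescent beta-galactosidase reporter signal from transgenic T. cruzi replicating inside host cells; inhibitors lower the luminescence signal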
Nonstructural protein 1 = Nonstructural protein 1 (Influenza A virus, UniProt Q194T2); type: functional, Influenza A virus (A/California/07/2009(H1N1))
[8] = THP-1 cell cytotoxicity, dose response, cytotoxicity control for Vif-APOBEC3G degradation inhibitor project, THP-1 cells (AID 1117359); type: functional; settings: Human immunodeficiency virus 1, THP-1
INS1 = assay: beta cell apoptosis inhibitors, cytokine rescue, dose response, luminescence, retest (AID 449756); type: functional, cell-based; settings: Rattus norvegicus;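 further: cell death triggered by IL-1 beta plus TNF-alpha plus IFN-gamma mixture; protective hits raise ATP signal compared with cytokine alone wells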
[9] = growth suppression of beta-catenin-knockout colon cells, dose response, cell-based, HCT116, human colon tumor (AID 1045); type: functional;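 further: HCT116 colon tumor cells with beta catenin knocked out; cells exposed to compound for 60 hours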
[10] = test system: Streptococcus sp. 'group A'; assay: growth inhibition of control SK(-) GAS strain, dose response, counter-screen for streptokinase expression inhibitor project, luminescence, kanamycin, BacTiterGlo, confirmation (AID 1900); type: functional, organism-based
[11] = HEp-2 cell cytotoxicity, dose response, cytotoxicity control for RSV inhibitor project, HTS (AID 2410); type: functional; settings: human respiratory syncytial virus
Streptococcus = assay: Group A Streptococcus viability loss, dose response, counter-screen for streptokinase expression inhibitor project, luminescence, BacTiterGlo (AID 1915); type: functional, organism-based;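 further: potency for reduction of bacterial viability or growth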
[12] = growth suppression of PTEN-null colon cells, dose response, cell-based, HCT116 PTEN knockout (AID 1047); type: functional;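 further: HCT116 colon tumor cells with PTEN knocked out; cells exposed to compound for 60 hours before readout; potency for loss of cell viability measured by luminescence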
Streptokinase A = molecular target: T3, Streptokinase A (Streptococcus pyogenes serotype M1, UniProt P10520); assay: S. pyogenes streptokinase expression inhibitors, potency, dose response, plasminogen activation absorbance, OD405 (AID 1914); type: functional, Streptococcus pyogenes M1 GAS;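 further: secreted streptokinase activity via plasminogen activation per viability signal from cell pellet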
T3 sequence (P10520 whole entry): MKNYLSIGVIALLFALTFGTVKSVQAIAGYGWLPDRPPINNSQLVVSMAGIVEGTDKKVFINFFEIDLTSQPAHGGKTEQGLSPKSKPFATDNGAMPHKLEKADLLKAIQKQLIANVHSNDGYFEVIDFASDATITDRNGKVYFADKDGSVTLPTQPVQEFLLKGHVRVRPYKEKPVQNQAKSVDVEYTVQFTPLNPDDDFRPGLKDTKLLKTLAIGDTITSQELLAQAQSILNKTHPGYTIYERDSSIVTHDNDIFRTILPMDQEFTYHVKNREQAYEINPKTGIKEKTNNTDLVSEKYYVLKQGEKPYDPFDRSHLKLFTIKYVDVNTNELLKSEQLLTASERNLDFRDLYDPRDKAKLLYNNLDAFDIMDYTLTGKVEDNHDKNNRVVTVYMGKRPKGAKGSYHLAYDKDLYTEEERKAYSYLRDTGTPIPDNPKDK

[13] = P. falciparum Dd2 growth inhibitors, dose response, SYBR Green, cherry-picked samples (AID 1159567); type: functional, cell-based

Sequence of Large T antigen (P03070 whole entry): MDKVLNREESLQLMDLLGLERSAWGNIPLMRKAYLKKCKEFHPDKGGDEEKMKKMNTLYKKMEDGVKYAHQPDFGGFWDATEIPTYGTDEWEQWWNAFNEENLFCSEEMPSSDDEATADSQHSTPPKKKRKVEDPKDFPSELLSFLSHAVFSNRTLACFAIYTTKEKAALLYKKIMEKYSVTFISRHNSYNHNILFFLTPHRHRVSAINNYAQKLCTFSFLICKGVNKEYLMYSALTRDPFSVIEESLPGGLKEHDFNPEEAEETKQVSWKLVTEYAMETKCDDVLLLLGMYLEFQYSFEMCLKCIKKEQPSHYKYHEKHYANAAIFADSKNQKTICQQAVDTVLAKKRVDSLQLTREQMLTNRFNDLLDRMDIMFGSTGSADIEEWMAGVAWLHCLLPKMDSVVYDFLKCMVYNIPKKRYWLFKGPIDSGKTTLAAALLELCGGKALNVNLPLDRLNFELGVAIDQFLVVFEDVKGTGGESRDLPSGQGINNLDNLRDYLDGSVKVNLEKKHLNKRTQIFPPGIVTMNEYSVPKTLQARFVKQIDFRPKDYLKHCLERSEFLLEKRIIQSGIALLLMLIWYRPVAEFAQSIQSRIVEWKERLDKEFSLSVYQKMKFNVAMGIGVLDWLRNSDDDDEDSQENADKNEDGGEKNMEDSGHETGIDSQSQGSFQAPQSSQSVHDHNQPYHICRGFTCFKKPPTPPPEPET
Sequence of Nonstructural protein 1 (Q194T2 whole entry): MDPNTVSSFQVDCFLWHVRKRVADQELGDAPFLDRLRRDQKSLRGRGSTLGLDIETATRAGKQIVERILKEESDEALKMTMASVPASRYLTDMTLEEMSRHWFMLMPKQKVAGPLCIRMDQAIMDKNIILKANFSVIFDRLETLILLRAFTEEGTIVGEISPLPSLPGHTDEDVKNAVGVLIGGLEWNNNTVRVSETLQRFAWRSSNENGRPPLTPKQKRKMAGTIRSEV
Sequence of Luciferin 4-monooxygenase (P08659 whole entry): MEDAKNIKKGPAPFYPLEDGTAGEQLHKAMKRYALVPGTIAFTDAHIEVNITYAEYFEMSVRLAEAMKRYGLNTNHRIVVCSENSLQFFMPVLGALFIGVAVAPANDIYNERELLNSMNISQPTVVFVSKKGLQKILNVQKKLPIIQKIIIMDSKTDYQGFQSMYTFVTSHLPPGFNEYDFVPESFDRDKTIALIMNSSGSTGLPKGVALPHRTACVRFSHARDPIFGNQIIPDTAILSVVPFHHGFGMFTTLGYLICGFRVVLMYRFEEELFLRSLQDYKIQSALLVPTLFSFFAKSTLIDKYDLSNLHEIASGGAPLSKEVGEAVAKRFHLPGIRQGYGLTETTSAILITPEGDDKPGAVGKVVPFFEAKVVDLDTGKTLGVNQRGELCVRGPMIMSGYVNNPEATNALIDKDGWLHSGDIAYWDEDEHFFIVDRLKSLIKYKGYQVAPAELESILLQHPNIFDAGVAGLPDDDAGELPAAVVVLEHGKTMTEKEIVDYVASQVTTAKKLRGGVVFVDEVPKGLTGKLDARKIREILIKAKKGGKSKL
Sequence of FAD-linked sulfhydryl oxidase ALR (P55789 whole entry): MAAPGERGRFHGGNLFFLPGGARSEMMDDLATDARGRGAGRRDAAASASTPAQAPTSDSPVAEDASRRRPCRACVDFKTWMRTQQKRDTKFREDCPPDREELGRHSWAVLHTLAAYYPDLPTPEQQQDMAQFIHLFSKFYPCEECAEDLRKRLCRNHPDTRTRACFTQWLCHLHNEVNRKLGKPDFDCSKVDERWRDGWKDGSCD
Sequence of Genome polyprotein (P29990 2492-3391 limits assumed): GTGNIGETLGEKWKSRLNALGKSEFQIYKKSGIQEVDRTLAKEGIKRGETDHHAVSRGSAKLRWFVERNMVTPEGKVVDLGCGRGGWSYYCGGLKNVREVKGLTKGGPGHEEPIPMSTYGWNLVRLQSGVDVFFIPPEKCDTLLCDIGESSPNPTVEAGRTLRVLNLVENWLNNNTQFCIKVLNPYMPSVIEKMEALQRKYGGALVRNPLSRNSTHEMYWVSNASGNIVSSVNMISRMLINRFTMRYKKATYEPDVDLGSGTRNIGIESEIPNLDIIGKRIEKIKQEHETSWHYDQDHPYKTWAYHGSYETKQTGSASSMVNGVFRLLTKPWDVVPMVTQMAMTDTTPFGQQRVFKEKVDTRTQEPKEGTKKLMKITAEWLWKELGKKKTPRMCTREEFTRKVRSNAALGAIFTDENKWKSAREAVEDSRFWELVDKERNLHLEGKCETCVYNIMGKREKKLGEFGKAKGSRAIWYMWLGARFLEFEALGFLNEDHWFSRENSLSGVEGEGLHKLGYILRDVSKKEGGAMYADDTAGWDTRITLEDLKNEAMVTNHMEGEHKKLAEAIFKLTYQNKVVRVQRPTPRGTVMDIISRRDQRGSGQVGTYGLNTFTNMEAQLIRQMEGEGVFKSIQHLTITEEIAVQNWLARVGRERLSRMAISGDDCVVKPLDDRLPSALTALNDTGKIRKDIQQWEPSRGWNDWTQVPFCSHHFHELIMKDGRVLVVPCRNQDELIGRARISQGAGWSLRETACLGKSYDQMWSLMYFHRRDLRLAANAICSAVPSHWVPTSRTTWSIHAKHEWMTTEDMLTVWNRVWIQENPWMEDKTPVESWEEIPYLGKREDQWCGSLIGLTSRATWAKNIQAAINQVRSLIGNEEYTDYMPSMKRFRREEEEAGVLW

For `O=C(O)c1ccc(CNc2ccccc2C(=O)O)cc1`, the IC50 [1] was 25.3 µM (active).
For `O=C(CCN1C(=O)/C(=C/c2ccc3c(c2)OCO3)SC1=S)Nc1cccc(C(=O)O)c1`, the IC50 [1] was 6.78 µM (active) and the IC50 (Genome polyprotein) was 47 µM (active).
In the case of `CCc1c(C)nc(N)nc1N1N=C1SC(C(C)=O)C(C)=O`, the IC50 [2] is reported as 12.5 µM (active) and the IC50 (Large T antigen) is reported as 95.9 µM (active).
With `Cc1ccc2[nH]c(/C(C#N)=C/c3ccc(-c4ccccc4C(=O)O)o3)nc2c1` the IC50 [1] was 17 µM (active).
In the case of `O=C(c1ccccc1)c1ccc2[nH]c(-c3ccc(NC(=O)c4ccccc4F)cc3)nc2c1`, the EC50 [3] is reported as > 112 µM (not active) and the EC50 [4] is reported as > 112 µM (not active).
With `COc1ccc(NC2CCCN(C(=O)c3c(C)noc3C)C2)cc1` (centres undefined) the AC50 [5] was 3.46 µM (active) and the IC50 (Large T antigen) was 24 µM (active).
With `O=C(Nc1cccc(N2CCCC2)c1)c1cccs1` the EC50 [6] was > 60 µM (not active), the EC50 [7] was 4.67 µM (active) and the EC50 [3] was > 112 µM (not active). For the same molecule, the EC50 [4] was > 112 µM (not active).
With `COc1ccc(N=Nc2c(N)n[nH]c2N)cc1` the AC50 [5] was 17 µM (active) and the IC50 (Large T antigen) was 12 µM (active).
For `CC1=NN(c2ccccc2)C(=O)/C1=C\c1sccc1C`, the IC50 (Nonstructural protein 1) was > 100 µM (active).
In the case of `O=C(CN(CCCN1CCOCC1)C(=O)Cn1nnc(-c2ccc(F)cc2)n1)NC1CCCCC1`, the EC50 [3] is reported as > 112 µM (not active) and the EC50 [4] is reported as > 112 µM (not active).
In the case of `O=C1c2ccccc2C(Nc2ccc3c(c2)OCO3)N1Cc1ccco1` (centres undefined), the EC50 [3] is reported as > 112 µM (not active) and the EC50 [4] is reported as > 112 µM (not active).
With `CC(=O)Nc1ccccc1O` the IC50 (Large T antigen) was 6.2 µM (active).
For `COC(=O)c1ccc(C)c(NC(=O)CSc2sc3c(O)cc(=O)[nH]c3c2C#N)c1`, the IC50 [1] was 3.04 µM (active).
With `Cc1ccccc1CCNC(=O)c1ccc(Cl)c(S(=O)(=O)N2CC(C)OC(C)C2)c1` (centres undefined) the CC50 [8] was > 40 µM (active).
In the case of `CN1/C(=C\C(=S)NC(=O)c2ccccc2Cl)C(C)(C)c2ccccc21`, the AC50 (INS1) is reported as 8.03 µM (active) and the IC50 (Nonstructural protein 1) is reported as 29.3 µM (active).
With `O=C(Oc1ccc(-c2cnc3ccccc3n2)cc1)c1ccc(Cl)c([N+](=O)[O-])c1` the EC50 [9] was 34.6 µM (active), the EC50 [10] was 11.5 µM (active) and the CC50 [11] was 25.1 µM (active). For the same molecule, the EC50 (Streptococcus) was 114 µM (active), the EC50 [12] was 48.9 µM (active) and the EC50 (Streptokinase A) was > 150 µM (not active).
With `O=C1NN(c2cccc(Br)c2)C(=O)/C1=C\c1ccc(O)cc1` the IC50 (Large T antigen) was 17.2 µM (active) and the IC50 (Genome polyprotein) was > 100 µM (active).
For `CC1C/C(=C/c2ccco2)C(=O)/C(=C/c2ccco2)C1` (centres undefined), the CC50 [8] was > 40 µM (active).
In the case of `CCc1ccc(-c2cc(C)no2)cc1S(=O)(=O)N1CCN(c2ccccc2OC)CC1`, the EC50 [3] is reported as > 112 µM (not active) and the EC50 [4] is reported as > 112 µM (not active).
In the case of `Cc1ccc(C2CC(c3ccccc3)=NN2C(=O)CSc2nnc(-c3ccc(Cl)cc3)o2)o1` (centres undefined), the EC50 [3] is reported as > 112 µM (not active) and the EC50 [4] is reported as > 112 µM (not active).
With `Oc1ccccc1C=NCCN1CCN(CCN=Cc2ccccc2O)C1c1ccccc1O` (centres undefined) the IC50 (Nonstructural protein 1) was 1.75 µM (active).
For `COc1ccc(Cl)cc1C=CC=NNC(=O)c1ccncc1`, the IC50 [1] was 18.9 µM (active).
For `N/C(=N\[N+](=O)[O-])N/N=C/c1ccc(O)cc1`, the IC50 [2] was 20.4 µM (active) and the IC50 (Large T antigen) was > 100 µM (active).
For `C=C(C)CNC(=S)N/N=C(\C)c1ccc(OC)cc1`, the EC50 [3] was > 112 µM (not active) and the EC50 [4] was 30.5 µM (active).
In the case of `C/C(=N\NC(=O)c1ccc(NS(=O)(=O)c2cccs2)cc1)c1ccc2ccccc2c1`, the CC50 [11] is reported as 16.7 µM (active), the EC50 [3] is reported as > 112 µM (not active) and the EC50 [4] is reported as > 112 µM (not active).
For `N#Cc1c(/N=C/c2ccc(-c3ccccc3C(=O)O)o2)sc2c1CCCC2`, the IC50 [1] was 9.17 µM (active).
With `CC/C(=N\NC(=O)CCC(=O)NCc1ccccc1)c1ccc(O)cc1` the IC50 (Large T antigen) was 34.6 µM (active).
For `COc1ccc2c3c(n(C)c2c1)[C@@H](CO)N(Cc1ccccc1F)CC31CCN(CC2CC2)CC1`, the AC50 [13] was 2.61 µM (active).
For `COc1ccc(-c2ccc3c(c2)[C@H]2[C@H](CCN2Cc2ccncc2)[C@@H](CO)N3)cc1`, the AC50 [13] was 7.26 µM (active).
With `COc1ccc2c3c([nH]c2c1)[C@@H](CO)N(C(=O)C1CCCCC1)CC31CCN(Cc2nccs2)CC1` the AC50 [13] was 4.44 µM (active).
With `COc1ccc(C#Cc2ccc3c(c2)[C@@H]2[C@@H](CCN2C(=O)C2CC2)[C@H](CO)N3)cc1` the AC50 [13] was 5.56 µM (active).
